EC50, AC50 and IC50 data for seven molecules are collected here from ChEMBL document CHEMBL1201862, “PubChem BioAssay data set” (2004).

The structures appear in SMILES notation. Active and inactive are the calls of the source.

The test system of assay [1] is Streptococcus. Nature of the assay: GAS UMAA2166 growth inhibition – luminescence, BacTiterGlo, counter-screen for streptokinase expression inhibitor project, dose response (AID 1915).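 Note: potency for reduction of bacterial viability or growth.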 Format: functional, organism-based.
Assay [2] deals with Streptococcus sp. 'group A'. Briefly: Streptococcus pyogenes SK(-)GAS viability under kanamycin – luminescence, BacTiterGlo, confirmation, counter-screen for streptokinase expression inhibitor project, dose response (AID 1900). Format: functional, organism-based.
The target of assay [3] is T1, Streptokinase A (Streptococcus pyogenes serotype M1, UniProt P10520).
T1 sequence (P10520 whole entry): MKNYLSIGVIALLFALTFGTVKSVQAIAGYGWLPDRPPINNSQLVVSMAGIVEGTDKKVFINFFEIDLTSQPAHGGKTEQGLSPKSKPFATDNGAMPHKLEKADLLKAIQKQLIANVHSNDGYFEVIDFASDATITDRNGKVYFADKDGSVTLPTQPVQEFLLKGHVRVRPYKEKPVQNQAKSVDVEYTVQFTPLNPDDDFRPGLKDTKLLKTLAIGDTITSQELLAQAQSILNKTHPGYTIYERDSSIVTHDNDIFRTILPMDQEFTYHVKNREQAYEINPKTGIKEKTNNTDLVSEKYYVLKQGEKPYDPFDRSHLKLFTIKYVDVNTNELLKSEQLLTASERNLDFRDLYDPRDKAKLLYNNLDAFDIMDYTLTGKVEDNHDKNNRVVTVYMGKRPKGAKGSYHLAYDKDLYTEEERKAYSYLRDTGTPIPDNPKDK
Briefly: viability-normalized secreted streptokinase activity reduction – plasminogen activation absorbance, OD405, dose response (AID 1914).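 Note: secreted streptokinase activity via plasminogen activation per viability signal from cell pellet.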 The assay is classed as functional, Streptococcus pyogenes M1 GAS.

Assay [4] deals with Escherichia coli. Nature of the assay: microbe, parasite or virus in culture.
Assay [5] deals with T2, Heat shock factor protein 1 (Mus musculus, UniProt P38532).
T2 sequence (P38532 whole entry): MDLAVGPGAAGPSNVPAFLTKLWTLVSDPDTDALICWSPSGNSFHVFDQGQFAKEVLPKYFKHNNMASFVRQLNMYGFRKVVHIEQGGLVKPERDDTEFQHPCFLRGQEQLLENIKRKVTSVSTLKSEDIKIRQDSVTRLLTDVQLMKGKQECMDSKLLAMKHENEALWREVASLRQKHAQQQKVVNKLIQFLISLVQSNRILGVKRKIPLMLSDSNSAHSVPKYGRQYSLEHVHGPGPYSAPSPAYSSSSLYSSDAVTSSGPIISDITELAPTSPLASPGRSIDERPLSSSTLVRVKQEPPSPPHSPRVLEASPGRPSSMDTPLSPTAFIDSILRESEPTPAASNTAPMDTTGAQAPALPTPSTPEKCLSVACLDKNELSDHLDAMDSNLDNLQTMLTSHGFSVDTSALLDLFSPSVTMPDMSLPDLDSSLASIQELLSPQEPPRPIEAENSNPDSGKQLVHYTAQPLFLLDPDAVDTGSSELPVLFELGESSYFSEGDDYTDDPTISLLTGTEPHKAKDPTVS
Nature of the assay: decrease of HSF1-responsive luciferase luminescence – cell-based, NIH3T3, dose retest, confirmation (AID 2382).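 Note: NIH3T3 fibroblasts with HSF1-driven luciferase reporter stressed by proteasome inhibitor MG132; luminescence from HSF1-driven luciferase expression after 8 hours of MG132 stress.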 The assay is classed as functional.

In assay [6] the target is Lysine-specific demethylase 4A (Homo sapiens, UniProt O75164). Briefly: inhibition of JMJD2A H3K9me3 demethylation – biochemical, DELFIA europium, cherry-picked samples, selectivity assay for GASC-1 inhibitor project, dose response (AID 488840).
Assay [7] concerns the target Voltage-gated inwardly rectifying potassium channel KCNH2 (Homo sapiens, UniProt Q12809). The conditions noted are these: Potency.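 Note: confirmatory quantitative high-throughput screen measuring inhibition of hERG channel activity.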
Assay [8] addresses T3, Mannose-6-phosphate isomerase (Homo sapiens, UniProt P34949).
T3 sequence (P34949 whole entry): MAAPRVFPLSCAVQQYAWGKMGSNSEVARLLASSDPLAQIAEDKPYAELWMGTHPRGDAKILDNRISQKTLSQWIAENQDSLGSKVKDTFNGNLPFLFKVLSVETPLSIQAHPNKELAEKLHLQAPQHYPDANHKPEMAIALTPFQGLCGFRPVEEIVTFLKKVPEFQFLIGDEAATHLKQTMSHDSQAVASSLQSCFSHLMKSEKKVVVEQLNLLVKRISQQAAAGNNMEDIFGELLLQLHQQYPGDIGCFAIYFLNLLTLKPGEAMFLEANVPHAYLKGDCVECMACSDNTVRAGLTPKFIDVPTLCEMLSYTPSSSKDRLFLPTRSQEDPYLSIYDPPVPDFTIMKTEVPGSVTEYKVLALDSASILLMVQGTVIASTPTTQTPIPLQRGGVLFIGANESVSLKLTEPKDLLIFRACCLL
Briefly: phosphomannose isomerase inhibition – biochemical, fluorescence intensity, confirmation (AID 1535).

In assay [9] the target is Phosphomannomutase 2 (Homo sapiens, UniProt O15305). Nature of the assay: Counter screen SAR assay for PMM2 inhibitors via a fluorescence intensity assay. [Related pubchem assays (depositor defined):AID1545, AID1574].
Chain of Phosphomannomutase 2 (O15305 whole entry): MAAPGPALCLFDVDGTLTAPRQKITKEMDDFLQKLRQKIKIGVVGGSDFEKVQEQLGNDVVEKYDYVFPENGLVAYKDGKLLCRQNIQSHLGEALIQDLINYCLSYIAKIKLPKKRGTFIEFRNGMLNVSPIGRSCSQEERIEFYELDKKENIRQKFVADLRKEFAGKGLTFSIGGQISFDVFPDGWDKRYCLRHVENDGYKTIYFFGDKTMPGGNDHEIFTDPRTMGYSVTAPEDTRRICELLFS
The target in assay [10] is Cytochrome P450 3A4 (Homo sapiens, UniProt P08684). The conditions noted are these: Potency.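 Note: confirmatory qHTS run detecting inhibitors and substrates of CYP3A4.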
Assay [11] deals with T4, Tyrosine-protein phosphatase non-receptor type 22 (Homo sapiens, UniProt Q9Y2R2).
T4 sequence (Q9Y2R2 whole entry): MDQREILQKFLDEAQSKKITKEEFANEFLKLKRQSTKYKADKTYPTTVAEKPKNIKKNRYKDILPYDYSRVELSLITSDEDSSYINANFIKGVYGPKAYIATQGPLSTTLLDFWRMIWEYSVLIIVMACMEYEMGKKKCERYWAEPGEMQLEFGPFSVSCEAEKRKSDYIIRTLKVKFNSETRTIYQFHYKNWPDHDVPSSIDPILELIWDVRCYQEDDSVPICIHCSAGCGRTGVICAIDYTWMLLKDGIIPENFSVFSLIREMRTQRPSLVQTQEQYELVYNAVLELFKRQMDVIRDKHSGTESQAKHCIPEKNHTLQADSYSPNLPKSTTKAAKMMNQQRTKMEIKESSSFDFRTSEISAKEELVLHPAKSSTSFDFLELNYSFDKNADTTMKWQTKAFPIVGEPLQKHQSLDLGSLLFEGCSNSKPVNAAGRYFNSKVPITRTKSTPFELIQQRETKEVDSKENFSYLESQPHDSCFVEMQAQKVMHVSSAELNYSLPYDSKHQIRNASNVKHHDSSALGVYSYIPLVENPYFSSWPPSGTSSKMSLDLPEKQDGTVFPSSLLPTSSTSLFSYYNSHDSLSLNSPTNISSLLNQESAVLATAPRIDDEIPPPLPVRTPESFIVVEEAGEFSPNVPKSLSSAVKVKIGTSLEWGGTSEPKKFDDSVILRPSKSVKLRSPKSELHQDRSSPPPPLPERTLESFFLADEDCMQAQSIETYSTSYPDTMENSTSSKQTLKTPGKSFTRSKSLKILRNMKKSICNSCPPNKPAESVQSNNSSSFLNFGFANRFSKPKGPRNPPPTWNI
Format: functional.

Assay [12] addresses T5, Tyrosine-protein phosphatase non-receptor type 7 (Homo sapiens, UniProt P35236).
T5 sequence (P35236 whole entry): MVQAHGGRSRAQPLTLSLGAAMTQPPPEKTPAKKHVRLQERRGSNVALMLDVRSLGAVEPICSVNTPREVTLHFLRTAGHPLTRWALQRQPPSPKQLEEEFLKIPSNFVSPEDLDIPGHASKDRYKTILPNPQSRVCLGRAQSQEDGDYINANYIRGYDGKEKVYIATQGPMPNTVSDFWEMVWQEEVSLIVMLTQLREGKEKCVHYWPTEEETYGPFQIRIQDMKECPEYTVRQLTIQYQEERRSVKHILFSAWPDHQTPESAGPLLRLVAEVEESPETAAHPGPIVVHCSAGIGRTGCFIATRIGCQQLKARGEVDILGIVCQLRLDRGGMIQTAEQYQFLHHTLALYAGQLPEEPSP
Format: functional.

In assay [13] the target is T4, Tyrosine-protein phosphatase non-receptor type 22. The assay is classed as functional. The source holds these as a separate data set.
For assay [14], the target named is T6, Voltage-gated N-type calcium channel alpha-1B subunit/Amyloid beta A4 precursor protein-binding family A member 1 (Homo sapiens, UniProt Q00975+Q02410). Format: protein assay.
T6 sequence (Q00975 whole entry): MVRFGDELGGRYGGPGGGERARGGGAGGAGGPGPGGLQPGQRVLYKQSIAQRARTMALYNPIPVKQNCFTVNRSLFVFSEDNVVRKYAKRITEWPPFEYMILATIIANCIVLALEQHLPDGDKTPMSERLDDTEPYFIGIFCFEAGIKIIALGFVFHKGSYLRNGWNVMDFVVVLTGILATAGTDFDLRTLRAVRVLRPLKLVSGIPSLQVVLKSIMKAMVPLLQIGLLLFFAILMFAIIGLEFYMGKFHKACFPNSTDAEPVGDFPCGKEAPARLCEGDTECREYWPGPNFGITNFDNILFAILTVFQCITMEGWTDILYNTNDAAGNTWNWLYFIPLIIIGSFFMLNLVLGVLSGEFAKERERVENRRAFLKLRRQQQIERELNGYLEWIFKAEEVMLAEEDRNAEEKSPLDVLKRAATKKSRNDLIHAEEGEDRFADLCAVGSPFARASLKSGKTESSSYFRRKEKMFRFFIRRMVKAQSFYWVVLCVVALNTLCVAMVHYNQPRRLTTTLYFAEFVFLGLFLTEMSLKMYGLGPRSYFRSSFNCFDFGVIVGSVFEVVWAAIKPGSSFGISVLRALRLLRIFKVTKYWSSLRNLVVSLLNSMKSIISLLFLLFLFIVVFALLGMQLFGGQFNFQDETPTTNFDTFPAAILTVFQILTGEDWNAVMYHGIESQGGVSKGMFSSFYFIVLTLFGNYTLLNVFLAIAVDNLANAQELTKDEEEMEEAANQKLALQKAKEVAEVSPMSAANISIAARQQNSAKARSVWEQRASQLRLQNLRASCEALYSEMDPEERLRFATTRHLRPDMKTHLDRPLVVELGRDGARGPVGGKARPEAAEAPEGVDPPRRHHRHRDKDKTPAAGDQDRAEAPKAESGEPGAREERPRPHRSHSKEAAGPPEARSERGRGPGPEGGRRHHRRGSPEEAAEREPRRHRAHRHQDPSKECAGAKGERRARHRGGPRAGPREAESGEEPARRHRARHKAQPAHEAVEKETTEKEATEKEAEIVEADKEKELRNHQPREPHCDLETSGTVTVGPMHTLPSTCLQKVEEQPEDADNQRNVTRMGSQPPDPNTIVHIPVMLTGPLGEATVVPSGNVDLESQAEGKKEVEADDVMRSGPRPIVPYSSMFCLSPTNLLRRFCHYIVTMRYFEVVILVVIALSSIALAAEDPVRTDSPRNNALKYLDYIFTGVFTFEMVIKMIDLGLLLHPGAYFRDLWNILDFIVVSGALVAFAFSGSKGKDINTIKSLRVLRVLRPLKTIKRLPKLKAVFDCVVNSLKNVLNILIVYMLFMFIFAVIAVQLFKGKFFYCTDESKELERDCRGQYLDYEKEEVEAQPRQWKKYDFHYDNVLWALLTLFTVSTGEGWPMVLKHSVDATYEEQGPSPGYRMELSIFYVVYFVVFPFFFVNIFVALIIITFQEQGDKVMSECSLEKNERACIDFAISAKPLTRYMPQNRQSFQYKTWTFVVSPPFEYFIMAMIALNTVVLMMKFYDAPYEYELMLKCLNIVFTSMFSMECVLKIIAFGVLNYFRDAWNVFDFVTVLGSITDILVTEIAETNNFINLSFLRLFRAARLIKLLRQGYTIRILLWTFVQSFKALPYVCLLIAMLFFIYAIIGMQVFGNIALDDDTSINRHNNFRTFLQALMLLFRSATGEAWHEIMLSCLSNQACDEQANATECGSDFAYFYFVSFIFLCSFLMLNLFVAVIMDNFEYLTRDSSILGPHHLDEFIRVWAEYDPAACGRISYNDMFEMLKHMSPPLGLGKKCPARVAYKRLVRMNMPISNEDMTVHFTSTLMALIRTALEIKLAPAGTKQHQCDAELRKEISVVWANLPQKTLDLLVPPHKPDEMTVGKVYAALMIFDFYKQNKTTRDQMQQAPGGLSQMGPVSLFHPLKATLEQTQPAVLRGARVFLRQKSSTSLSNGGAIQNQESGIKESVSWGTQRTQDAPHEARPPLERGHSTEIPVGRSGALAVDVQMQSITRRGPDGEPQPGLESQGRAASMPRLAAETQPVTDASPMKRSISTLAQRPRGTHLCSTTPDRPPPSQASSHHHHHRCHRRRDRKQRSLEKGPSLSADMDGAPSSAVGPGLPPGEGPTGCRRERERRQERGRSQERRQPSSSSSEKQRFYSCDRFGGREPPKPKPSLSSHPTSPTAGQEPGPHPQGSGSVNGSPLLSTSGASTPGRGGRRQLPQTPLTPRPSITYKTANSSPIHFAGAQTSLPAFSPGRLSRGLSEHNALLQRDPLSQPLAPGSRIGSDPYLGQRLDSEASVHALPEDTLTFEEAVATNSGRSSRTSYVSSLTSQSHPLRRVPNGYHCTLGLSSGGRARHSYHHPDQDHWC
T6 sequence (Q02410 whole entry): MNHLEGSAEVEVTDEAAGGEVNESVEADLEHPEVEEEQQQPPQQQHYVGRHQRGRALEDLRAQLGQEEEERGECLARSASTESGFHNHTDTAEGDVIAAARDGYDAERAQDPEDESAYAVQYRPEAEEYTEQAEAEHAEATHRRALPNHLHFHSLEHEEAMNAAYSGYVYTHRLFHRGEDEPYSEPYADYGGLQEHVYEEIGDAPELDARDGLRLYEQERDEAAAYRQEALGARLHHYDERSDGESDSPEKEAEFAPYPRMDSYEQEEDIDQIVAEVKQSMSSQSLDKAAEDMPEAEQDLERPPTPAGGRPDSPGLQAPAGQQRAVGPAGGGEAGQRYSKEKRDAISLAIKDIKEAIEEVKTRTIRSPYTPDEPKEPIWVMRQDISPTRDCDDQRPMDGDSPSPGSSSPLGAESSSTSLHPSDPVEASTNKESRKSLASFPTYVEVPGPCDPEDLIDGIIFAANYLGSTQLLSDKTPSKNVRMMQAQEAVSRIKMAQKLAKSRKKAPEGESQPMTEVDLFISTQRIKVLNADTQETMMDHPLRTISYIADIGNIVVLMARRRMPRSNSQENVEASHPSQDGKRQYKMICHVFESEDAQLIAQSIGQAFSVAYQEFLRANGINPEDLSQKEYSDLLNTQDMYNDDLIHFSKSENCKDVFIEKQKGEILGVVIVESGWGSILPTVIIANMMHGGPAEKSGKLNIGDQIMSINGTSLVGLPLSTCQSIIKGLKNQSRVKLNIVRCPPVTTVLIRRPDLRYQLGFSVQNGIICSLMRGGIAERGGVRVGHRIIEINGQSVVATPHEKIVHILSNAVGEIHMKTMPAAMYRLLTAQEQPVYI
Assay [15] has as its target T6, Voltage-gated N-type calcium channel alpha-1B subunit/Amyloid beta A4 precursor protein-binding family A member 1. Format: protein assay. The source holds these as a separate data set.
The target in assay [16] is Eukaryotic translation initiation factor 4E (Mus musculus, UniProt P63073). Nature of the assay: blockers of eIF4G binding by eIF4E – biochemical, TR-FRET, dose response (AID 855).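 Note: potency for disrupting eIF4E binding to eIF4GI seen as loss of FRET.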 The assay is classed as functional.
Chain of Eukaryotic translation initiation factor 4E (P63073 whole entry): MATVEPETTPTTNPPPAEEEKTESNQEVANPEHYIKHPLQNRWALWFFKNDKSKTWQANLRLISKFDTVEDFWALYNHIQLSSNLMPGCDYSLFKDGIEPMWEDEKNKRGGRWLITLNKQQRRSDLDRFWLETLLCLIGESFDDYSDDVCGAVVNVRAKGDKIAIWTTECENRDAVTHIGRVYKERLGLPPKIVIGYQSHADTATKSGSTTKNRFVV

Chain of Voltage-gated inwardly rectifying potassium channel KCNH2 (Q12809 whole entry): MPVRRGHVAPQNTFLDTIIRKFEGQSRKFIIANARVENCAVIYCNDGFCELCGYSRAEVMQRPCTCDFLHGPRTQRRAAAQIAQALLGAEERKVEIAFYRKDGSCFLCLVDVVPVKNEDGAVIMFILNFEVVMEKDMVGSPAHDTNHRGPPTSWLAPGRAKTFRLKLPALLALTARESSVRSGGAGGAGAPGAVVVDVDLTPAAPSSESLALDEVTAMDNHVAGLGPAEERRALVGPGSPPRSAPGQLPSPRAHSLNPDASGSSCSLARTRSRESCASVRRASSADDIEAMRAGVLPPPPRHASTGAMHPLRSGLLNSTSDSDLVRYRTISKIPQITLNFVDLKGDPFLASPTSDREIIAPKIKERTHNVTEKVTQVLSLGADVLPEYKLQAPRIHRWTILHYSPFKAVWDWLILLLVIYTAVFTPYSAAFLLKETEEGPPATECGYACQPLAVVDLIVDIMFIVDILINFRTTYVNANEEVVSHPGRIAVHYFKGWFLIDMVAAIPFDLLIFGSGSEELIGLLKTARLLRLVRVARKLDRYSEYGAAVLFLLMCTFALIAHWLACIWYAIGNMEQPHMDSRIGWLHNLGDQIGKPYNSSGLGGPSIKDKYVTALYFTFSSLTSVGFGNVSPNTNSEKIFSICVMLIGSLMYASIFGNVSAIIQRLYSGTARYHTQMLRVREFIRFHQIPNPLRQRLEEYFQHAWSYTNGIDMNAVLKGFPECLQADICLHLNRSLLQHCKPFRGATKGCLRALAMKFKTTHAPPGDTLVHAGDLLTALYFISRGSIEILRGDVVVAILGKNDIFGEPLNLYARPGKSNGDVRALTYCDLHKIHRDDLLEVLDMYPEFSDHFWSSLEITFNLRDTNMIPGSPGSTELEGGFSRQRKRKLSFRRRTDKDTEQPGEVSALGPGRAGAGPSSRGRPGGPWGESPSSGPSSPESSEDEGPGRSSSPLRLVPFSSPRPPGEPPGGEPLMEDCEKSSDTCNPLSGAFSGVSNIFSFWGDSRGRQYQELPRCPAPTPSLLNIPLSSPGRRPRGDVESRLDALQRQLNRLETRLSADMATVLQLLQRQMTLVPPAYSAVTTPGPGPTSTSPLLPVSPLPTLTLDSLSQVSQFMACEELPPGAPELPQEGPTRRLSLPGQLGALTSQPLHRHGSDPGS

For `N#Cc1nc(-c2ccccc2Cl)oc1N1CCN(C(=O)c2ccco2)CC1`, the EC50 is listed as > 150 µM (not active) in assay [1], > 150 µM (not active) in [2], > 150 µM (not active) in assay [3] and > 195 µM (not active) in assay [5]. The AC50 in assay [4] was 23.9 µM (active).
As to `Cc1ccccc1Cn1c2ccccc2c2cnnc(O)c21`, in assay [6], the AC50 is 30.2 µM (active).
In the case of `O=[N+]([O-])c1cc([N+](=O)[O-])c2ccccc2c1`, in assay [7], the AC50 is 15.8 µM (inconclusive).
With `O=[N+]([O-])c1ccc(/N=c2\ssnc2Cl)cc1`, the IC50 in [8] was 23 µM (active); in [9], > 100 µM (inactive).
In the case of `CC(C)(c1ccccc1)c1ccc(O)cc1`, the AC50 in [10] is 20 µM (inconclusive); in assay [7], 28.2 µM (inconclusive).
On to `C/C(=N\NC(=O)c1c(-c2ccccc2Cl)noc1C)c1cccc(NC(=O)C(C)C)c1`, for which the IC50 in assay [11], in [12] and in assay [13] was > 79.4 µM (inactive) throughout.
Regarding `Clc1nss/c1=N\c1ccccc1`, the concentration for half-maximal inhibition (IC50) in assay [8] was 15.7 µM (active); in assay [9] it was > 100 µM (inactive); in assay [14], 8.07 µM (active); in assay [15] it was 8.44 µM (active); in [16], 50 µM (inactive).
